# Assay results reported in patent publication US10640499B2 (Gilead Sciences, Inc., priority 2016, dated 2020).
# System: IFNα
# Test: Cytokine profiling assay in human PBMCs, IFNα detection (MSD)
# Type: cell-based
# Conditions: PBMC; cryopreserved human PBMCs, 24 hours at 37° C.; concentration at half-maximal effect, normalized percent activation; read-out: IFNa AC50
# Description: (§1) Cryopreserved human PBMCs isolated from healthy donors were purchased from StemCell Technologies (Vancouver, Canada). Cell culture medium used was RPMI with L-Glutamine (Mediatech, Manassas, Va.) supplemented with 10% fetal bovine serum (Hyclone, GE Healthcare, Logan, Utah) and Penicillin-Streptomycin (Mediatech). Human TNFα, IL12p40, and IFNα2a 384-well Assay capture plates, standards, buffers and processing reagents were obtained from MesoScale Discovery Technologies (MSD; Rockville, Md.).
# (§2) Cryopreserved human PBMCs (1×10e8 cells/ml) were thawed at 37° C. and resuspended in 25 mL warm cell culture medium. The cells were pelleted at 200×g (Beckman Avanti J-E) for 5 min and resuspended in 20 mL of fresh culture media. Cells were counted using a Cellometer (Nexcelcom Bioscience), adjusted to 2×10e6 cells, and incubated for 2 hours in an incubator set at 37° C., 5% CO2 to recover from cryopreservation. Compounds were serially diluted in DMSO at half-log steps to generate a 10-point dose range. Using a Bravo pipette equipped with a 384 well head (Agilent), 0.4 μL of compound was transferred to each well of a 384 well black, clear bottom plate (Greiner Bio-One, Germany) containing 30 μL of cell culture medium. Recovered PBMCs were then dispensed into the assay plate at 50 μL per well (100 k cells/well) using the MicroFlow multichannel dispenser (Biotek). Final DMSO concentration was 0.5%. DMSO was used as the negative control. The plates were incubated for 24 hours at 37° C. PBMCs in the assay plate were pelleted by centrifugation (Beckman Avanti J-E) at 200×g for 5 min.
# (§3) Using a Biomek FX 384 well pipetting station (Beckman), conditioned culture medium (CCM) from the assay plate was transferred to MSD capture plates customized for each cytokine. For IFNα and IL12-p40 detection, 25 μL and 20 μL of CCM were added directly to each capture plate, respectively. For TNFα detection, CCM was diluted 1:9 in fresh culture medium, and 20 μL of diluted CCM was used. Serially diluted calibration standards for each cytokine were used to generate standard curves and establish assay linearity. The plates were sealed and incubated overnight at 4° C. in a plate shaker (Titer Plate) set at 200 rpm. On the following day, antibodies specific for each cytokine were diluted 1:50 in MSD Diluent 100 antibody dilution buffer. Diluted antibodies were added to corresponding capture plates at 10 μL/well, and incubated at RT for 1-2 hrs in the shaker. The plates were washed with PBST buffer (3×, 60 μl/well) using a Biotek Multiflow plate washer. MSD Read Buffer diluted to 2× in deionized water and 35 μL/well was added via Biomek FX instrument. The plates were read immediately in a MSD6000 reader. Data were normalized to positive and negative controls in each assay plate. AC50 values represent compound concentrations at half-maximal effect based on normalized percent activation and calculated by non-linear regression using Pipeline Pilot software (Accelrys, San Diego, Calif.).
row,SMILES,AC50
1,"CCCC[C@](C)(CNC(C)=O)Nc1nc(N)nc2cc(CC)cnc12 [Compound 1, (R)—N-(2-((2-amino-7-ethylpyrido[3,2-d]pyrimidin-4-yl)amino)-2-methylhexyl)acetamide]",44600 nM
2,"CCCC[C@](C)(CNC(C)=O)Nc1nc(N)nc2cc(C(C)C)cnc12 [Compound 2, (R)—N-(2-((2-amino-7-isopropylpyrido[3,2-d]pyrimidin-4-yl)amino)-2-methylhexyl)acetamide]",35000 nM
3,"CCCC[C@](C)(CNC(C)=O)Nc1nc(N)nc2cc(OC)cnc12 [Compound 4, (R)—N-(2-((2-amino-7-methoxypyrido[3,2-d]pyrimidin-4-yl)amino)-2-methylhexyl)acetamide]",> 50000 nM
4,"CCCC[C@](C)(CNC(C)=O)Nc1nc(N)nc2cc(OCC)cnc12 [Compound 5, (R)—N-(2-((2-amino-7-ethoxypyrido[3,2-d]pyrimidin-4-yl)amino)-2-methylhexyl)acetamide]",> 50000 nM
5,"CCC[C@](C)(CNC(C)=O)Nc1nc(N)nc2cccnc12 [Compound 6, (R)—N-(2-((2-aminopyrido[3,2-d]pyrimidin-4-yl)amino)-2-methylpentyl)acetamide]",> 50000 nM
6,CCCCCC[C@](C)(CNC(C)=O)Nc1nc(N)nc2cccnc12 [Compound 7],> 50000 nM
7,"CCCC[C@H](CNC(C)=O)Nc1nc(N)nc2cc(F)cnc12 [Compound 8, (R)—N-(2-((2-amino-7-fluoropyrido[3,2-d]pyrimidin-4-yl)amino)hexyl)acetamide]",> 50000 nM

# System: TNFα
# Test: Cytokine profiling assay in human PBMCs, TNFα detection (MSD)
# Type: cell-based
# Conditions: PBMC; cryopreserved human PBMCs, 24 hours at 37° C.; concentration at half-maximal effect, normalized percent activation; read-out: TNFa AC50
# Description: as §1, §2, §3
row,SMILES,AC50
1,"CCCC[C@](C)(CNC(C)=O)Nc1nc(N)nc2cc(CC)cnc12 [Compound 1, (R)—N-(2-((2-amino-7-ethylpyrido[3,2-d]pyrimidin-4-yl)amino)-2-methylhexyl)acetamide]",85.3 nM
2,"CCCC[C@](C)(CNC(C)=O)Nc1nc(N)nc2cc(C(C)C)cnc12 [Compound 2, (R)—N-(2-((2-amino-7-isopropylpyrido[3,2-d]pyrimidin-4-yl)amino)-2-methylhexyl)acetamide]",262 nM
3,"CCCC[C@](C)(CNC(C)=O)Nc1nc(N)nc2cc(OC)cnc12 [Compound 4, (R)—N-(2-((2-amino-7-methoxypyrido[3,2-d]pyrimidin-4-yl)amino)-2-methylhexyl)acetamide]",122 nM
4,"CCCC[C@](C)(CNC(C)=O)Nc1nc(N)nc2cc(OCC)cnc12 [Compound 5, (R)—N-(2-((2-amino-7-ethoxypyrido[3,2-d]pyrimidin-4-yl)amino)-2-methylhexyl)acetamide]",81.2 nM
5,"CCC[C@](C)(CNC(C)=O)Nc1nc(N)nc2cccnc12 [Compound 6, (R)—N-(2-((2-aminopyrido[3,2-d]pyrimidin-4-yl)amino)-2-methylpentyl)acetamide]",1460 nM
6,CCCCCC[C@](C)(CNC(C)=O)Nc1nc(N)nc2cccnc12 [Compound 7],4190 nM
7,"CCCC[C@H](CNC(C)=O)Nc1nc(N)nc2cc(F)cnc12 [Compound 8, (R)—N-(2-((2-amino-7-fluoropyrido[3,2-d]pyrimidin-4-yl)amino)hexyl)acetamide]",1880 nM

# System: IL12p40
# Test: Cytokine profiling assay in human PBMCs, IL12-p40 detection (MSD)
# Type: cell-based
# Conditions: PBMC; cryopreserved human PBMCs, 24 hours at 37° C.; concentration at half-maximal effect, normalized percent activation
# Description: as §1, §2, §3
row,SMILES,AC50
1,"CCCC[C@](C)(CNC(C)=O)Nc1nc(N)nc2cc(CC)cnc12 [Compound 1, (R)—N-(2-((2-amino-7-ethylpyrido[3,2-d]pyrimidin-4-yl)amino)-2-methylhexyl)acetamide]",60.4 nM
2,"CCCC[C@](C)(CNC(C)=O)Nc1nc(N)nc2cc(C(C)C)cnc12 [Compound 2, (R)—N-(2-((2-amino-7-isopropylpyrido[3,2-d]pyrimidin-4-yl)amino)-2-methylhexyl)acetamide]",209 nM
3,"CCCC[C@](C)(CNC(C)=O)Nc1nc(N)nc2cc(OC)cnc12 [Compound 4, (R)—N-(2-((2-amino-7-methoxypyrido[3,2-d]pyrimidin-4-yl)amino)-2-methylhexyl)acetamide]",120 nM
4,"CCCC[C@](C)(CNC(C)=O)Nc1nc(N)nc2cc(OCC)cnc12 [Compound 5, (R)—N-(2-((2-amino-7-ethoxypyrido[3,2-d]pyrimidin-4-yl)amino)-2-methylhexyl)acetamide]",48.4 nM
5,"CCC[C@](C)(CNC(C)=O)Nc1nc(N)nc2cccnc12 [Compound 6, (R)—N-(2-((2-aminopyrido[3,2-d]pyrimidin-4-yl)amino)-2-methylpentyl)acetamide]",1240 nM
6,CCCCCC[C@](C)(CNC(C)=O)Nc1nc(N)nc2cccnc12 [Compound 7],2670 nM
7,"CCCC[C@H](CNC(C)=O)Nc1nc(N)nc2cc(F)cnc12 [Compound 8, (R)—N-(2-((2-amino-7-fluoropyrido[3,2-d]pyrimidin-4-yl)amino)hexyl)acetamide]",1480 nM
